From PubChem BioAssay AID624420 (Sanford-Burnham Center for Chemical Genomics, 2012)

System: Human plasma stability, percent remaining
Assay: compound stability in Homo sapiens plasma, ADME assay, biochemical, second set (AID 624420)
Settings: at 1 µM

Row | SMILES | plasma stability [%]
1 | COc1ccc(N(C(=O)CCl)C(C(=O)NCCc2ccccc2)c2cccs2)cc1Cl (stereo not given) | 68.2
2 | COC(=O)c1ccccc1NC(=O)c1ccc(F)cc1 | 80
3 | COc1ccc(CSc2nc(C)cc(=O)[nH]2)cc1 | 100
4 | CCN1CCN(c2nc3ccccc3nc2C(C#N)C(=O)OC2CCCCC2)CC1 (stereo not given) | 100
5 | Cc1ccc(C)c(NS(=O)(=O)c2cc(C(=O)Nc3ccccc3-c3ccccc3)ccc2Cl)c1 | 100
6 | CN(C)c1nc(N)nc(CSc2nnnn2-c2cccc3ccccc23)n1 | 100
7 | O=C(CCNS(=O)(=O)c1cccc2nsnc12)N1CCN(c2ccccn2)CC1 | 91.2
8 | O=C(CSc1cccc2cccnc12)N1CCCC1 | 99.3
9 | CCOc1ccc(NC(=S)N2CCC(C(O)(c3ccccc3)c3ccccc3)CC2)cc1 | 63.7
10 | Brc1ccc2c(c1)CN1CCCC1=N2 | 100
11 | Cn1nnnc1Sc1ncnc2scc(-c3ccccc3)c12 | 76.8
12 | CC1CCCN(C(C(=O)Nc2ccc3c(c2)OCCO3)c2ccccc2)C1 (stereo not given) | 100
13 | COc1ccc(C2c3c(ncn(CCN4CCOCC4)c3=N)Oc3ccc4ccccc4c32)cc1OC (stereo not given) | 93.5
14 | CCCc1nc2c(=O)n(C)c(=O)nc-2n(C)n1 | 1.52
15 | COc1ccc(S(=O)(=O)N2CCN(S(=O)(=O)c3ccc4c(c3)OCCO4)CC2)cc1 | 96.4
16 | Cc1ccccc1N1CCN(c2ncnc3c2cnn3Cc2ccc(Cl)cc2)CC1 | 88.2
17 | Cc1ccc(N2CCN(S(=O)(=O)N3CCCCC3)CC2)c(C)c1 | 100
18 | CCOc1ccc(-c2nc(-c3ccncc3)no2)cc1OCC | 100
19 | O=c1c2ccccc2[se]n1-c1ccccc1 | 100
20 | CCc1oc2ccccc2c1C(=O)c1cc(Br)c(O)c(Br)c1 | 94.6
21 | CC[C@H]1CN2CCc3cc(OC)c(OC)cc3[C@@H]2C[C@@H]1C[C@H]1NCCc2cc(OC)c(OC)cc21 | 91.5
22 | O=C(O)CCC(NS(=O)(=O)c1ccc(-c2ccccc2)cc1)C(=O)O (stereo not given) | 57

Row | SMILES | plasma stability [%]
23 | Cc1nc(SCc2nc3ccccc3[nH]2)c2oc3ccccc3c2n1 | 88
24 | O=C1C2CC=CCC2C(=O)N1c1n[nH]c(-c2ccccc2)n1 (stereo not given) | 69.8
25 | CCCN1CNc2c(c(=O)[nH]c(=S)n2CCc2ccc(OC)c(OC)c2)C1 | 85.1
26 | COc1cccc(-c2nc(-c3ccc(NC(=O)Cc4ccccc4OC)cc3)no2)c1 | 100
27 | Cc1ccc(-n2c(N)c(C#N)c(-c3ccccc3)c(C#N)c2=O)cc1 | 99.8
28 | O=C(O)c1cccnc1SCCc1ccccc1 | 88.3
29 | C/C=C/Cn1c(SCCCc2ccccc2)nc2c1c(=O)[nH]c(=O)n2C | 98.5
30 | COc1ccc(C2CC(c3ccccc3)=NN2c2ccc(S(N)(=O)=O)cc2)cc1 (stereo not given) | 79.5
31 | O=C1CCCC2=C1C1(CCCC1)N=C(Nc1nc3ccccc3o1)N2 | 100
32 | N#C/C(=C\c1ccc([N+](=O)[O-])o1)c1nc2ccccc2[nH]1 | 16.9
33 | CS(=O)(=O)c1ccc(C(=O)OCC(=O)NC23CC4CC(CC(C4)C2)C3)cc1[N+](=O)[O-] | 0.07
34 | C=CCn1c(SCC(=O)c2ccc(O)c(O)c2)nnc1-c1ccccc1OC | 100
35 | CN(C)C1=C(Cl)C(=O)N(c2ccc(Cl)c(Cl)c2)C1=O | 0.83
36 | O=S(=O)(NC1CCCCC1N1CCOCC1)c1ccc(Cl)cc1 (stereo not given) | 100
37 | Brc1cc2c(cc1C1Nc3ccccc3C3C=CCC31)OCO2 (stereo not given) | 97
38 | Cc1cc(C(=O)CN2C(=O)CCC2=O)c(C)n1Cc1ccccc1 | 84
39 | O=C1NCCCc2c1oc1ccc(O)cc21 | 95.7
40 | Cc1cccc(-n2cnc3cc(C(=O)N4CCCCC4)ccc32)c1 | 87
41 | Cc1ccc(S(=O)(=O)C(c2ccccc2)c2c(C)noc2C)cc1 (stereo not given) | 91.9
42 | Cc1cc(-c2nnc3n2CCCCC3)c(C)n1-c1ccccc1 | 87.9
43 | CC(=O)c1ccc(N2CCN(S(=O)(=O)c3ccc4c(c3)CC(=O)N4)CC2)cc1 | 80.6
44 | CCCc1cc(C(=O)N(C2CCCCC2)C2CCCCC2)no1 | 67.4

Row | SMILES | plasma stability [%]
45 | O=C(c1ccccn1)N(Cc1cccs1)C1(C(=O)NC2CCCCC2)CCCCC1 | 96.7
46 | Cc1ccnc(NC(=O)CCCOc2cc(=O)n(C)c3ccccc23)c1 | 100
47 | CSc1nc(-c2ccc(C)cc2)nc(C(Cl)Cl)n1 | 81.9
48 | COc1ccccc1N(/N=C1\Sc2ccccc2C1=O)C(C)=O | 94.1
49 | CCCn1ncc(CN2CCCC(C(=O)c3cccc(OC(C)C)c3)C2)c1C (stereo not given) | 100
50 | O=c1[nH]c2c(s1)C(c1cccnc1)C1C3CCC(C3)C1S2 (stereo not given) | 86.8
51 | Cc1ccc(S(=O)(=O)NCc2ccc(C(=O)NCCN(Cc3ccccc3)C(C)C)cc2)cc1 | 100
52 | O=[N+]([O-])c1ccc(CN2CCOCCOCCN(Cc3ccc([N+](=O)[O-])cc3)CCOCC2)cc1 | 98.3
53 | Cc1cc(C)n(-c2nc(NCCCO)c3c4c(sc3n2)CCCC4)n1 | 88.5
54 | O=C(COc1ccccc1Br)NCCc1nc2ccccc2[nH]1 | 88
55 | O=C(O)c1ccc(N2C(=O)/C(=C/c3ccc(-c4ccc([N+](=O)[O-])cc4)o3)C=C2c2ccccc2)cc1 | 87.3
56 | CCOC(=O)C(C)Oc1cccc2c(=O)n(CC(=O)Nc3ccc4c(c3)OCCO4)ccc12 (stereo not given) | 37.7
57 | COc1ccc(CNCc2cccc3ccccc23)cc1 | 92.1
58 | Cc1cc2c(s1)c1cnn(Cc3ccccc3F)c(=O)c1n2C | 82.8
59 | CCCC(=O)Nc1cccc(NC(=O)c2ccccc2Br)c1 | 87.8
60 | CN(C)c1oc(-c2ccc(OCc3ccc(Cl)cc3)cc2)nc1C#N | 94.3
61 | COc1ccc(OC)c(S(=O)(=O)Nc2cnc3ccccc3c2)c1 | 83
62 | CCCN(CCC)CCNC(=O)C1CCN(Cc2nc(-c3ccc(Cl)cc3)oc2C)CC1 | 100
63 | COc1ccc(OC)c(-c2nnc3n2N=C(c2ccc(OC)c(OC)c2)CS3)c1 | 100
64 | CCc1nnc(NC(=O)c2ccc(NS(=O)(=O)c3ccccc3)cc2)s1 | 100
65 | O=c1[nH]c(SCc2ccc(Cl)cc2)nc2c1CCC2 | 100
66 | NC(=O)C1CCN(c2nc(-c3ccc(Br)cc3)cs2)CC1 | 96.8

Row | SMILES | plasma stability [%]
67 | Cc1ccc(C)c(OCCn2cc(C(=O)O)c3ccccc32)c1 | 91.6
68 | Cc1cc(C)nc(-n2nc(C)c(Sc3ccc(F)cc3)c2N)n1 | 97
69 | N#Cc1ccccc1CSc1nc2ncc(Br)cc2[nH]1 | 95.4
70 | Cn1cnc([N+](=O)[O-])c1Sc1ncnc2nc[nH]c12 | 83.2
71 | c1ccc(-c2nnc(N3CCOCC3)nc2-c2ccccc2)cc1 | 100
72 | CC(C)C(=O)NC(c1ccco1)c1ccc2cccnc2c1O (stereo not given) | 100
73 | COc1ccc(S(=O)(=O)n2nc(OC(=O)c3ccccc3)cc2N)cc1 | 0.3
74 | c1ccc2c(Nc3nnc(-c4ccncc4)s3)cccc2c1 | 99.5
75 | Cc1ccc(S(=O)(=O)n2c(N)nc3ccccc32)cc1 | 95.8
76 | Cc1ccc(NS(=O)(=O)c2ccc3c(c2)CCC(=O)N3)cc1C | 100
77 | Cc1ccc(NC(=O)CCC(=O)N/N=C/c2ccc([N+](=O)[O-])o2)cc1C | 67
78 | COc1nc(-c2ccccc2)nnc1-c1ccccc1 | 100
79 | O=C(COC(=O)C12CC3CC(CC(C3)C1)C2)NCc1ccco1 | 58.7
80 | Cc1ccc(C(=O)n2c3ccccc3c3ccccc32)cc1 | 92
81 | c1ccc(CC2CCN(c3ncnc4sccc34)CC2)cc1 | 100
82 | O=S1(=O)Nc2c(ccc3cccnc23)-c2ccccc21 | 100
83 | CCCOc1ccc(-c2nc(OC)c3ccccc3n2)cc1 | 100
84 | COc1ccc(Sc2ccc(NC(=O)c3ccccc3Cl)cc2C#N)cc1 | 91.9
85 | O=C(O)c1ccccc1OCc1ccccc1Br | 76.7
